Patent publication US10111874B2, “Combination therapies for treatment of cancer” (Araxes Pharma LLC, priority 2014, dated 2018)

Target: T1, KRAS G12C 1-169, his-tagged protein, GDP-loaded (Homo sapiens, UniProt P01116, G12C)
T1 construct: KRAS G12C 1-169, his-tagged protein, GDP-loaded
Assay: Biochemical assay: covalent binding to KRAS G12C analyzed by mass spectrometry; note: test concentration or dose not given here

[1] = compounds 1-47, measured at 24 h
[2] = compounds 48-246, measured at 2 h

T1 sequence (P01116 1-169 isoform P01116-2 G12C): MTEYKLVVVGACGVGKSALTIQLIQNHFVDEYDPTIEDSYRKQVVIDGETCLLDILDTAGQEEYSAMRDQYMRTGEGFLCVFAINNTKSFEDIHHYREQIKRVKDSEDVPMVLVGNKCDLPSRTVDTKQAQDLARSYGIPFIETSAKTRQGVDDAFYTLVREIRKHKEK

Structure (SMILES) | Binding % [1] | Binding % [2]
C=CC(=O)N1CCN(c2c(C#N)cnc3cc(Cl)c(-c4ccc(Cl)cc4)cc23)CC1 [Compound I-42, 4-(4-acryloylpiperazin-1-yl)-7-chloro-6-(4-chlorophenyl)quinoline-3-carbonitrile] | +++ (+++indicates binding activity greater than 50% and up to 75%) | –
C=CC(=O)N1CCN(c2nc(OC)nc3cc(Cl)c(-c4ccc(Cl)cc4)cc23)CC1 [Compound I-43, 1-(4-(7-chloro-6-(4-chlorophenyl)-2-methoxyquinazolin-4-yl)piperazin-1-yl)prop-2-en-1-one] | +++ (+++indicates binding activity greater than 50% and up to 75%) | –
C=CC(=O)N1CCN(c2ncnc3cc(Cl)c(-c4ccc(Cl)cc4)cc23)CC1C(N)=O (stereo not shown) [Compound I-44, 1-acryloyl-4-(7-chloro-6-(4-chlorophenyl)quinazolin-4-yl)piperazin-2-carboxamide] | +++ (+++indicates binding activity greater than 50% and up to 75%) | –
C=CS(=O)(=O)N1CCN(c2ncnc3cc(Cl)c(-c4ccc(Cl)cc4)cc23)CC1 [Compound I-45, 7-chloro-6-(4-chlorophenyl)-4-(4-(vinylsulfonyl)piperazin-1-yl)quinazoline] | + (+indicates binding activity from 5% to 25%) | –
C=CC(=O)N1CCN(c2ncnc3cc(Cl)c(-c4ccc(Cl)cc4)cc23)CC1CO (stereo not shown) [Compound I-46, 1-(4-(7-chloro-6-(4-chlorophenyl)quinazolin-4-yl)-2-(hydroxymethyl)piperazin-1-yl)prop-2-en-1-one] | ++++ (++++indicates binding activity greater than 75%) | –
C=CC(=O)N1CCN(c2ncnc3cc(Cl)c(-c4ccc(Cl)cc4)cc23)CC1C#N (stereo not shown) [Compound I-47, 1-acryloyl-4-(7-chloro-6-(4-chlorophenyl)quinazolin-4-yl)piperazine-2-carbonitrile] | ++++ (++++indicates binding activity greater than 75%) | –
C=CC(=O)N1CCN(c2ncnc3cc(Cl)ccc23)CC1C#N (stereo not shown) [Compound I-48, 1-acryloyl-4-(7-chloroquinazolin-4-yl)piperazine-2-carbonitrile] | – | ++++ (++++indicates binding activity greater than 75%)
C=CC(=O)N1CCN(c2ncnc3cc(Cl)c(Br)cc23)CC1C#N (stereo not shown) [Compound I-49, 1-acryloyl-4-(6-bromo-7-chloroquinazolin-4-yl)piperazine-2-carbonitrile] | – | ++++ (++++indicates binding activity greater than 75%)
C=CC(=O)N1CCN(c2ncnc3cc(Cl)c(-c4cccs4)cc23)CC1C#N (stereo not shown) [Compound I-51, 1-acryoyl-4-(7-chloro-6-(thiophen-2-yl)quinazaolin-4-yl)piperazine-2-carbonitrile] | – | ++++ (++++indicates binding activity greater than 75%)
C=CC(=O)N1CCN(c2ncnc3cc(Cl)c(-c4ccccc4)cc23)CC1C#N (stereo not shown) [Compound I-52, 1-acryloyl-4-(7-chloro-6-phenylquinazolin-4-yl)piperazine-2-carbonitrile] | – | ++++ (++++indicates binding activity greater than 75%)
C=CC(=O)N1CCN(c2ncnc3cc(Cl)c(C#N)cc23)CC1C#N (stereo not shown) [Compound I-53, 4-(4-acryloyl-3-cyanopiperazin-1-yl)-7-chloroquinazoline-6-carbonitrile] | – | ++++ (++++indicates binding activity greater than 75%)
C=CC(=O)N1CCN(c2ncnc3cc(Cl)c(-c4ccc(Cl)cc4)cc23)C[C@H]1C(N)=O [Compound I-54, (S)-1-acryloyl-4-(7-chloro-6-(4-chlorophenyl)quinazolin-4-yl)piperazine-2-carboxamide] | – | ++ (++indicates binding activity greater than 25% and up to 50%)
C=CC(=O)N1CCN(c2ncnc3cc(Cl)c(C4CC4)cc23)CC1C#N (stereo not shown) [Compound I-55, 1-acryloyl-4-(7-chloro-6-cyclopropylquinazolin-4-yl)piperazine-2-carbonitrile] | – | ++++ (++++indicates binding activity greater than 75%)
C=CC(=O)N1CCN(c2nc(C)nc3cc(Cl)c(-c4ccc(Cl)cc4)cc23)CC1C#N (stereo not shown) [Compound I-56, 1-acryloyl-4-(7-chloro-6-(4-chlorophenyl)-2-methylquinazolin-4-yl)piperazine-2-carbonitrile] | – | ++++ (++++indicates binding activity greater than 75%)
C=CC(=O)N1CCN(c2ncnc3ccccc23)CC1C#N (stereo not shown) [Compound I-57, 1-acryloyl-4-(quinazolin-4-yl)piperazine-2-carbontrile] | – | + (+indicates binding activity from 5% to 25%)
C=CC(=O)N1CCN(c2ncnc3cc(Cl)c(-c4ccc(Cl)cc4)cc23)C[C@@H]1C#N [Compound I-58, (R)-1-acryloyl-4-(7-chloro-6-(4-chlorophenyl)quinazolin-4-yl)piperazine-2-carbonitrile] | – | +++ (+++indicates binding activity greater than 50% and up to 75%)
C=CC(=O)N1CCN(c2ncnc3cc(Cl)c(-c4ccc(Cl)cc4)cc23)C[C@H]1C#N [Compound I-59, (S)-1-acryloyl-4-(7-chloro-6-(4-chlorophenyl)quinazolin-4-yl)piperazine-2-carbonitrile] | – | ++++ (++++indicates binding activity greater than 75%)

Structure (SMILES) | Binding % [1] | Binding % [2]
C=CC(=O)N1CCN(c2ncnc3cc(Cl)c(-c4ccc(Cl)cc4)cc23)CC1CN(C)C (stereo not shown) [Compound I-60, 1-(4-(7-chloro-6-(4-chlorophenyl)quinazolin-4-yl)-2-((dimethylamino)methyl)piperazin-1-yl)prop-2-en-1-one] | – | + (+indicates binding activity from 5% to 25%)
C=CC(=O)N1CCN(c2nccc3cc(Cl)ccc23)CC1C#N (stereo not shown) [Compound I-61, 1-acryloyl-4-(6-chloroisoquinolin-1-yl)piperazine-2-carbonitrile] | – | + (+indicates binding activity from 5% to 25%)
C=CC(=O)N1CCN(c2ncnc3cc(Cl)c(-c4ccc(Cl)cc4)cc23)CC1CCO (stereo not shown) [Compound I-62, 1-(4-(7-chloro-6-(4-chlorophenyl)quinazolin-4-yl)-2-(2-hydroxyethyl)piperazin-1-yl)prop-2-en-1-one] | – | + (+indicates binding activity from 5% to 25%)
C=CC(=O)N1CCN(c2ncnc3cc(Cl)c(-c4ccc(Cl)cc4)cc23)C[C@H]1CO [Compound I-63, (S)-1-(4-(7-chloro-6-(4-chlorophenyl)quinazolin-4-yl)-2-(hydroxymethyl)piperazin-1-yl)prop-2-en-1-one] | – | + (+indicates binding activity from 5% to 25%)
C=CC(=O)N1CCN(c2ncnc3cc(Cl)c(-c4ccc(Cl)cc4)cc23)C[C@@H]1C(N)=O [Compound I-64, (R)-1-acryloyl-4-(7-chloro-6-(4-chlorophenyl)quinazolin-4-yl)piperazine-2-carboxamide] | – | ++ (++indicates binding activity greater than 25% and up to 50%)
C=CC(=O)N1CCN(c2ncnc3cc(Cl)c(-c4ccc(Cl)cc4)cc23)C[C@@H]1CO [Compound I-65, (R)-1-(4-(7-chloro-6-(4-chlorophenyl)quinazolin-4-yl)-2-(hydroxymethyl)piperazin-1-yl)prop-2-en-1-one] | – | + (+indicates binding activity from 5% to 25%)
CN(C)C/C=C/C(=O)N1CCN(c2ncnc3cc(Cl)c(-c4ccc(Cl)cc4)cc23)CC1C#N (stereo not shown) [Compound I-66, (E)-4-(7-Chloro-6-(4-chlorophenyl)quinazolin-4-yl)-1-(4-(dimethylamino)but-2-enoyl)piperazine-2-carbonitrile] | – | ++++ (++++indicates binding activity greater than 75%)
C=CC(=O)N1CCN(c2ncnc3cc(-c4ccccc4)c(Cl)cc23)CC1 [Compound I-67, 1-(4-(6-chloro-7-phenylquinazolin-4-yl)piperazin-1-yl)prop-2-en-1-one] | – | +++ (+++indicates binding activity greater than 50% and up to 75%)
C=CC(=O)N1CCN(c2ncnc3cc(C4CC4)c(Cl)cc23)CC1 [Compound I-68, 1-(4-(6-chloro-7-cyclopropylquinazolin-4-yl)piperazin-1-yl)prop-2-en-1-one] | – | + (+indicates binding activity from 5% to 25%)
C=CC(=O)N1CCN(c2ncnc3cc(Cl)c(-c4ccc(Cl)cc4)cc23)CC1CC(N)=O (stereo not shown) [Compound I-69, 2-(1-acryloyl-4-(7-chloro-6-(4-chlorophenyl)quinazolin-4-yl)piperazin-2-yl)acetamide] | – | + (+indicates binding activity from 5% to 25%)
C=CC(=O)N1CCN(c2ncnc3cc(Cl)c(-c4ccc(Cl)cc4)cc23)CC1CC#N (stereo not shown) [Compound I-70, 2-(1-acryloyl-4-(7-chloro-6-(4-chlorophenyl)quinazolin-4-yl)piperazin-2-yl)acetonitrile] | – | +++ (+++indicates binding activity greater than 50% and up to 75%)
C=CC(=O)N1CCN(c2ncnc3ccc(-c4ccc(Cl)cc4)cc23)CC1 [Compound I-71, 1-(4-(6-(4-chlorophenyl)quinazolin-4-yl)piperazin-1-yl)prop-2-en-1-one] | – | + (+indicates binding activity from 5% to 25%)
C=CC(=O)N1CCN(c2ncnc3cc(-c4ccccc4Cl)c(Cl)cc23)CC1 [Compound I-72, 1-(4-(6-chloro-7-(2-chlorophenyl)quinazolin-4-yl)piperazin-1-yl)prop-2-en-1-one] | – | ++ (++indicates binding activity greater than 25% and up to 50%)
C=CC(=O)N1CCN(c2ncnc3cc(-c4cccc(Cl)c4)c(Cl)cc23)CC1 [Compound I-73, 1-(4-(6-chloro-7-(3-chlorophenyl)quinazolin-4-yl)piperazin-1-yl)prop-2-en-1-one] | – | ++ (++indicates binding activity greater than 25% and up to 50%)
C=CC(=O)N1CCN(c2ncnc3cc(-c4cccc(O)c4)c(Cl)cc23)CC1 [Compound I-75, 1-(4-(6-chloro-7-(3-hydroxyphenyl)quinazolin-4-yl)piperazin-1-yl)prop-2-en-1-one] | – | + (+indicates binding activity from 5% to 25%)
C=CC(=O)N1CCN(c2ncnc3cc(Oc4ccccc4)c(Cl)cc23)CC1 [Compound I-76, 1-(4-(6-chloro-7-phenoxyquinazolin-4-yl)piperazin-1-yl)prop-2-en-1-one] | – | + (+indicates binding activity from 5% to 25%)
C=CC(=O)N1CCN(c2ncnc3cc(-c4ccccc4CC)c(Cl)cc23)CC1 [Compound I-77, 1-(4-(6-chloro-7-(2-ethylphenyl)quinazolin-4-yl)piperazin-1-yl)prop-2-en-1-one] | – | +++ (+++indicates binding activity greater than 50% and up to 75%)
